Like-named read-outs stand apart in the source and are kept apart here. Where a SMILES comes first, the peptide text is derived from it. Bridges are numbered along the chain shown (N, C = ends).
What was measured:
[1] = Bioaffinity ESI-MS with UMP; assay type: binding, Staphylococcus aureus; conditions: 25 mM ammonium acetate (pH5.2)
Experimental: (§1) All components for interactions were dissolved in 25 mM ammonium acetate (pH5.2). Electrospray spectra were recorded with Waters SynaptG2‐Si mass spectrometer (Waters, Manchester, UK) and measurements were performed with positive ESI in resolution mode. Ions were scanned in a mass range of 500–2,000 m/z with the following conditions: the capillary voltage at 1,500 V; the cone voltage at 40 V; the source block temperature at 30°C. Spectra were recorded and processed by the software Masslynx4.1 (Waters, Manchester, UK).

[2] = molecular target: T1, hLZc (lysozyme C) (Homo sapiens, UniProt P61626); experiment: Bio-affinity ESI-MS for non-covalent complexes; assay type: binding; conditions: 52.5 μM AMSIN and 50 μM hLZc in 25 mM NH4OAc (pH5.2)
T1 construct: lysozyme C) isolated from human saliva; from tissue; host or cells: human saliva
Experimental: as §1

[3] = molecular target: HNP1&2 (Homo sapiens, UniProt P59665); experiment: Bio-affinity ESI-MS for non-covalent complexes; assay type: binding; conditions: 52.5 μM AMSIN and 73.5 μM HNP1&2 in 25 mM NH4OAc (pH5.2)
Experimental: as §1

[4] = test system: SP R6; experiment: RNA sequencing of the stimulon; assay type: cell-based, Streptococcus pneumoniae; conditions: sub‐lethal concentration, 10 min
Experimental: Cells were harvested and washed with PBS buffer (pH 7.3) following further incubation for 10 min. Total RNA was isolated using the Bacteria Total RNA Isolation Kit (Sangon, China) according to the manufacturer’s instruction. RNA quality was assessed by NanoDrop and Agilent 2100 Bioanalyzer (Table EV6). After enrichment and fragment, mRNA was reverse transcribed into single‐strand DNA and then synthesized into double‐strand DNA. Following end‐filling, 5′‐phosphorylation, bubble adaptor ligation, and PCR amplification, a single‐strand circled DNA library was established for sequencing in BGISEQ‐500 sequencer (BGI, China) with a combinatorial probe‐anchor synthesis (cPAS) strategy.

[5] = test system: MRSA P1374; experiment: Cytoplasmic accumulation of UMP; assay type: cell-based, Staphylococcus aureus; conditions: 20 × C L, 30 min; RP-HPLC, UV 260 nm
Experimental: To analyze the cytoplasmic nucleotide pool, we carried out the cytoplasmic UMP accumulation experiment according to the literature (Brötz et al, [1997]) with some modifications. MRSA P1374 cells were grown in 40‐ml broth medium at 37°C to an OD600 of 0.5. The culture was supplemented with 130 μg/ml chloramphenicol. […] After 30 min of incubation, UMP was extracted from the harvested cells by stirring them into boiling water. The suspension was then centrifuged (43,000 g, 60 min) at 4°C and the supernatant was lyophilized and dissolved in 400 μl of 50 mM ammonium acetate (pH 5.2) and adjusted to pH 2.0 with acetic acid. After acidification, the supernatant was fractionated by RP‐HPLC on Hypersil ODS (250 × 4.6 mm; Thermo Scientific) and UMP was eluted from the column with a linear gradient from 0 to 40% methanol in 50 mM NH4Ac (pH 5.2) within 40 min with a flow rate of 1 ml/min. UV absorbance was monitored at 260 nm. UMP was identified by ultraperformance liquid chromatography–high resolution mass spectrometry (UPLC‐HRMS) and MALDI‐TOF. Both methods yielded consistent results.

[6] = Stability in H2O (residual activity by inhibition-zone assay); assay type: physicochemical; conditions: 48‐h incubation in H2O at 37°C
[7] = 10 μg i.p. once daily for 3 days, serum after 2 days, 1:100 diluted over AMSIN-immobilized CM5 chip
Experimental: Firstly, three female ICR mice (25 g each mouse, 6 weeks of age) were injected intraperitoneally (i.p.) with 10‐μg protein dissolved in 0.9% NaCl once daily (OD) for 3 days. One female ICR mouse of 25 g (6 weeks of age) injected with 0.9% NaCl in the same manner was used as control. Blood samples were then collected from the mouse retro‐orbital plexus after 2 days. Sera were obtained by centrifugation and stored at –20°C until further use. […] In this process, bovine serum albumin (BSA) was added at a final concentration of 0.25 mg/ml to inhibit non‐specific binding. The amount of bound material, if any, was determined by measuring the increase in RUs.

[8] = 37°C
[9] = test system: SP D39; experiment: Mouse lung infection model
Experimental: To this end, ICR female mice (30 g each mouse; 9–10 weeks of age) were anesthetized with 1.25% 2,2,2‐Tribromoethanol (Avertin) (Macklin, Shanghai, China) and hung by their front teeth on a steel wire. Then, they were inoculated intranasally with 10–20 µl bacterial suspension of SP D39 of fresh overnight culture (1.5 × 10^6 CFU per mouse) and then were removed from the wire to their cages. A control group of untreated mice was included. […] Mice were treated with penicillin as a positive control. At 48 h post‐infection, the mice were sacrificed and lungs removed and homogenized in 0.9% saline. Colony counts from lung homogenates were determined and the total number of colonies/lungs per mouse was calculated. Schematic representation is provided in Appendix Fig S16B.

T1 sequence (P61626 19-148): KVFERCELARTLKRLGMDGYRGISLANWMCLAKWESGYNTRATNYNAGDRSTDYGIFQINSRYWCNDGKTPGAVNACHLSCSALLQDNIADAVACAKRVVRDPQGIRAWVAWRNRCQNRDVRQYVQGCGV
Sequence of HNP1&2 (P59665 66-94 limits assumed): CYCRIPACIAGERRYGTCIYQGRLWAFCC

## CC[C@H](C)[C@@H]1NC(=O)[C@H](CCCCN)NC(=O)CNC(=O)[C@H](CCCNC(=N)N)NC(=O)[C@@H]2CSSC[C@H](NC(=O)CNC(=O)[C@H](Cc3ccccc3)NC(=O)CN)C(=O)N3CCC[C@H]3C(=O)N[C@@H](Cc3c[nH]c4ccccc34)C(=O)N[C@@H](CC(N)=O)C(=O)N[C@@H](C)C(=O)N[C@@H](Cc3ccc(O)cc3)C(=O)N[C@@H](CCC(=O)O)C(=O)N[C@H]3CSSC[C@H](NC(=O)[C@H]([C@@H](C)O)NC(=O)[C@H](CCC(N)=O)NC(=O)[C@H](CCCNC(=N)N)NC1=O)C(=O)N[C@@H](Cc1c[nH]cn1)C(=O)N[C@H](C(=O)N[C@@H](Cc1ccc(O)cc1)C(=O)O)CSSC[C@H](NC(=O)[C@H](Cc1c[nH]cn1)NC(=O)[C@H](CCCNC(=N)N)NC(=O)[C@H](CC(=O)O)NC3=O)C(=O)N[C@@H](C(C)C)C(=O)N[C@@H](CO)C(=O)N[C@@H](CCCCN)C(=O)NCC(=O)N[C@@H](Cc1ccc(O)cc1)C(=O)N[C@@H]([C@@H](C)O)C(=O)NCC(=O)NCC(=O)N[C@@H](CC(N)=O)C(=O)N2 [AMSIN] (H-GFGCPWNAYECDRHCVSKGYTGGNCRGKIRQTCHCY-OH; disulfide 4-25, 11-33, 15-35; N-terminus and C-terminus assumed)
[1]
  Non-covalent complex with UMP by ESI-MS: quadruply protonated complex
[2]
  Complex formation by ESI-MS: no complex formation
[3]
  Complex formation by ESI-MS: no complex formation
[4]
  Transcriptional profile compared with vancomycin: partly overlapped
[5]
  Cytoplasmic accumulation of UMP: accumulated
[6]
  Residual antibacterial activity: full antibacterial activity
[7]
  Anti-drug antibody in AMSIN-treated mouse serum: no obvious anti‐drug antibody
[8]; 24 h in fresh normal mouse serum without dilution
  Residual antibacterial activity: full antibacterial activity
[8]; undiluted mouse serum, 48‐h study period
  Activity in serum compared with in H2O: slight decrease
[9]; 8.35 mg/kg i.m. 24 h after intranasal SP D39, lungs at 48 h post‐infection, animal 1
  Log10 (CFU per lung): 3.3 Log10 (CFU per lung)
[9]; 8.35 mg/kg i.m., animal 2
  Log10 (CFU per lung): 3.48 Log10 (CFU per lung)
[9]; 8.35 mg/kg i.m., animal 3
  Log10 (CFU per lung): 3.3 Log10 (CFU per lung)
[9]; 8.35 mg/kg i.m., animal 4
  Log10 (CFU per lung): 3 Log10 (CFU per lung)
[9]; 8.35 mg/kg i.m., animal 5
  Log10 (CFU per lung): 3.78 Log10 (CFU per lung)
[9]; 16.7 mg/kg i.m., animal 1
  Log10 (CFU per lung): 3.89 Log10 (CFU per lung)
[9]; 16.7 mg/kg i.m., animal 2
  Log10 (CFU per lung): 1.48 Log10 (CFU per lung)
[9]; 16.7 mg/kg i.m., animal 3
  Log10 (CFU per lung): 1 Log10 (CFU per lung)
[9]; 16.7 mg/kg i.m., animal 4
  Log10 (CFU per lung): 4.2 Log10 (CFU per lung)
[9]; 16.7 mg/kg i.m., animal 5
  Log10 (CFU per lung): 1.6 Log10 (CFU per lung)
[9]; 33 mg/kg i.m., animal 1
  Log10 (CFU per lung): 1 Log10 (CFU per lung)
[9]; 33 mg/kg i.m., animal 2
  Log10 (CFU per lung): 1.3 Log10 (CFU per lung)
[9]; 33 mg/kg i.m., animal 3
  Log10 (CFU per lung): 1 Log10 (CFU per lung)
[9]; 33 mg/kg i.m., animal 4
  Log10 (CFU per lung): 1.3 Log10 (CFU per lung)
[9]; 33 mg/kg i.m., animal 5
  Log10 (CFU per lung): 1.48 Log10 (CFU per lung)
[9]; different doses (8.35, 16.7, 33 mg per kg i.m.)
  Reduction of CFU in lungs: 4.6–6.7 log10
[9]; intramuscular injection (i.m.)
  Toxicity of administration route in the model: no obvious toxicity
